The values below come from US20230099756A1, “METHODS OF USING ANTI-CD79B IMMUNOCONJUGATES TO TREAT DIFFUSE LARGE B-CELL LYMPHOMA” (Genentech, Inc., priority 2021, published 2023).

Where a SMILES comes first, the peptide text is derived from it. [ ]: non-standard residue; d: D form. The star is where a group is joined. Dolaproine = CO[C@@H]([C@@H]1CCCN1)[C@@H](C)C(=O)O; Dil = CC[C@H](C)[C@H](NC)[C@@H](CC(=O)O)OC; X1 = C[C@@H](N*)[C@@H](O)c1ccccc1; NMeV = CN[C@H](C(=O)O)C(C)C

Format in all cases: in vitro ADME
One data set concerns the target P-glycoprotein (P-gp) (Homo sapiens, UniProt P08183). Description: P-glycoprotein substrate and inhibitor status of MMAE. The source says:
(§1) Based on a validated physiological-based PK model simulation, strong CYP3A4 inhibitors may increase the exposure (e.g., area under the concentration-time curve) of unconjugated MMAE by […] while acMMAE PK is not affected. Concomitant medications that are strong CYP3A4 inhibitors are considered cautionary as they may potentially lead to adverse reactions, which require close monitoring. […] Concomitant medications that are P-gp inhibitors are considered cautionary as they may potentially lead to adverse reactions, which require close monitoring.

A further data set has as its target CYP2D6 (Homo sapiens, UniProt P10635). Description: In vitro metabolism of unconjugated MMAE. As to conditions: in vitro data.
Description: as §1

Another data set deals with CYP3A4 (Homo sapiens, UniProt P08684). Description: In vitro metabolism of unconjugated MMAE. As to conditions: in vitro data.
Chain of CYP3A4 (P08684 whole entry): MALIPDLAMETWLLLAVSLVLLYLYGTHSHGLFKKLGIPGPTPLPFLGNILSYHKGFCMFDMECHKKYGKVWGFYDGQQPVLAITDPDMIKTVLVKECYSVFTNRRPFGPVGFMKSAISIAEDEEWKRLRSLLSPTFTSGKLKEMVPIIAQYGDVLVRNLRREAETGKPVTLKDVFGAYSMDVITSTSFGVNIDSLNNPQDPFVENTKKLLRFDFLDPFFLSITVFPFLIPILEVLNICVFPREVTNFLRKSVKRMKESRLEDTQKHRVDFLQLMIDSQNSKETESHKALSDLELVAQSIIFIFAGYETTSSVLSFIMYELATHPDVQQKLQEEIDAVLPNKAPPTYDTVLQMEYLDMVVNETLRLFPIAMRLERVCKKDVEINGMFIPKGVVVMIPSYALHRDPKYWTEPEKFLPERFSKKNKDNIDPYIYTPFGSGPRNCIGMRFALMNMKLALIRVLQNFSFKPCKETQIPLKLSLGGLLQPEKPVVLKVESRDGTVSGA
Description: as §1

Chain of P-glycoprotein (P-gp) (P08183 whole entry): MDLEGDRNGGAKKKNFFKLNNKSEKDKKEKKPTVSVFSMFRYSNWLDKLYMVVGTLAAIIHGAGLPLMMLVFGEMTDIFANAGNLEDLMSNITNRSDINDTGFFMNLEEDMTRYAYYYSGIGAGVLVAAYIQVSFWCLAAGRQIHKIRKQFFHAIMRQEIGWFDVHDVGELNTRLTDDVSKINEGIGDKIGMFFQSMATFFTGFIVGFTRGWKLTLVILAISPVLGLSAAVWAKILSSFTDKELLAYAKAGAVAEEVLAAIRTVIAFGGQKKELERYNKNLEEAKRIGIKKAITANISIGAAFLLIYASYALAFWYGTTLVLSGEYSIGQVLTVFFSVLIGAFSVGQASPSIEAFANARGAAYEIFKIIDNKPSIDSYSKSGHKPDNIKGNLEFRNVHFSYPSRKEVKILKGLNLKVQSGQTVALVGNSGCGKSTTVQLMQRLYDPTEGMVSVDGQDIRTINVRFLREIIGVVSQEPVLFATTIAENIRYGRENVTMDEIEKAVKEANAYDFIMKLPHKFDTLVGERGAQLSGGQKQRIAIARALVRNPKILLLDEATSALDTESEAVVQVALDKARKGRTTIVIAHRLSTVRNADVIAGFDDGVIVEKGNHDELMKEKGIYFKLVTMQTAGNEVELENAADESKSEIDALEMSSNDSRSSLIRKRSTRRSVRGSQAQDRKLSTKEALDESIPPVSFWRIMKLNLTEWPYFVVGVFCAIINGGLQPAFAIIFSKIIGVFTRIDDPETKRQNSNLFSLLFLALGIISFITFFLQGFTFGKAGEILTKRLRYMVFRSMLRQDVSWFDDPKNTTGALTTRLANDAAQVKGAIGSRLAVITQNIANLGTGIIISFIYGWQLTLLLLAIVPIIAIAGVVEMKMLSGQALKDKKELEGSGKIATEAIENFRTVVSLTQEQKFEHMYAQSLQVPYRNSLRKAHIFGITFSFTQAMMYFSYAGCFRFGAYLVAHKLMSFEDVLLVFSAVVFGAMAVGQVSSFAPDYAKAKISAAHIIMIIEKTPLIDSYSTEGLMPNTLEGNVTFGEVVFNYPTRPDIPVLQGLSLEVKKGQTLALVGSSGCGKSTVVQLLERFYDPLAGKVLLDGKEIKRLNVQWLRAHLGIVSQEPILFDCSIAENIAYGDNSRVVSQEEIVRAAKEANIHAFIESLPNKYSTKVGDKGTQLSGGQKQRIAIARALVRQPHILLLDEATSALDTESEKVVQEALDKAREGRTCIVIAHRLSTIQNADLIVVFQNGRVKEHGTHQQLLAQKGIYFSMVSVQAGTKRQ
Chain of CYP2D6 (P10635 whole entry): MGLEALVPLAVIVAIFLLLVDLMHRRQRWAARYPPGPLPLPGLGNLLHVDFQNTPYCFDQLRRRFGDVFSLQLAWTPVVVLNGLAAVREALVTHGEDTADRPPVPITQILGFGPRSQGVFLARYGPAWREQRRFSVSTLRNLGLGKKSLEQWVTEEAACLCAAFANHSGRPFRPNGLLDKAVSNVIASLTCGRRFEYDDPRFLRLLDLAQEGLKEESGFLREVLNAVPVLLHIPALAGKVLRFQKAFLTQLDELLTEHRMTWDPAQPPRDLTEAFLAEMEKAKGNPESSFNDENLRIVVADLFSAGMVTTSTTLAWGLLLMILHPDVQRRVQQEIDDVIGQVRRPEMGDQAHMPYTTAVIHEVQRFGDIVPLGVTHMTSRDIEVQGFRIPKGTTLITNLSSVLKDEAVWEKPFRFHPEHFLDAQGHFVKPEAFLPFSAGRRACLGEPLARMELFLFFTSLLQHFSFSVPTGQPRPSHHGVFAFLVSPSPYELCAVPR

For `CC[C@H](C)[C@@H]([C@@H](CC(=O)N1CCC[C@H]1[C@H](OC)[C@@H](C)C(=O)N[C@H](C)[C@@H](O)c1ccccc1)OC)N(C)C(=O)[C@@H](NC(=O)[C@@H](NC)C(C)C)C(C)C` [MMAE] (H-[NMeV]V[Dil][Dolaproine]-X1), on P-glycoprotein (P-gp), the P-gp inhibitor status entry is reported as “not a P-gp inhibitor” and the P-gp substrate status entry was “P-glycoprotein (P-gp) substrate”. The “metabolism by CYP2D6” value at CYP2D6 is “to a lesser extent, by CYP2D6”. The “metabolism by CYP3A4” value at CYP3A4 is given as “mainly metabolized by CYP3A4”.
